Key:
[1] = tested on: non-small cell lung carcinoma; experiment: clinical response, patient with metastatic non-small cell lung carcinoma, tumor size by CAT scan; type: in vivo, human; details: for response to pretreatment: pretreatment with VP-16 (etoposide) and cisplatin, same patient before topotecan
Method: One human patient with metastatic non-small cell lung carcinoma, who was refractory to pretreatment with VP-16 (etoposide) and cisplatin, received a course of therapy comprising intravenous administration of 1.5 mg of topotecan/m^2 of body surface area per day for five consecutive days. This course of therapy was repeated at least five more times at twenty-one day intervals (from the date of initiation of therapy) for a total of at least […] treatments. Tumor size regression was evaluated by CAT (computerized axial tomography) scan.

[2] = tested on: DNA topoisomerase I; details: background statement; cited from earlier work
[3] = tested on: non-small cell lung carcinoma; experiment: clinical response, second patient with non-small cell lung carcinoma; type: in vivo, human
[4] = qualitative statement; cited from earlier work
[5] = stability of diluted topotecan solutions in plastic bags at room temperature (percentage of initial topotecan remaining); type: physicochemical; details: 0 hrs
Method: Stability--Shelf life surveillance of the intact vials is ongoing. Because the single-use lyophilized dosage form contains no antibacterial preservatives, it is advised that the reconstituted solution be discarded eight hours after initial entry into the vial. Further dilutions of the reconstituted solution to concentrations of 0.02 mg/ml and 0.1 mg.ml in 5% Dextrose Injection, USP, ("D5W") or 0.9% Sodium Chloride Injection, USP, ("NS") in plastic bags stored at room temperature yielded the following stability results:
PERCENTAGE OF INITIAL TOPOTECAN REMAINING IN SOLUTION

## COc1cc([C@@H]2c3cc4c(cc3[C@@H](O[C@@H]3O[C@@H]5CO[C@@H](C)O[C@H]5[C@H](O)[C@H]3O)[C@H]3COC(=O)[C@H]23)OCO4)cc(OC)c1O [etoposide]
[1]
  response to pretreatment: refractory

## CC[C@@]1(O)C(=O)OCc2c1cc1n(c2=O)Cc2cc3ccccc3nc2-1 [camptothecin, reference compound]
[2]
  inhibition of topoisomerase I: known to inhibit topoisomerase I

## CC(O)CCC(=O)c1ccoc1 (stereo not drawn) [ipomeanol, reference compound]
[3]; same patient before topotecan
  response to previous ipomeanol: failed to respond

## N.N.[Cl][Pt][Cl] [cisplatin]
[1]
  response to pretreatment: refractory

## CC[C@@]1(O)C(=O)OCc2c1cc1n(c2=O)Cc2cc3c(CN(C)C)c(O)ccc3nc2-1 [topotecan, (S)-9-dimethylaminomethyl-10-hydroxycamptothecin]
[1]; one patient refractory to VP-16 and cisplatin, i.v. 1.5 mg/m^2 per day, five consecutive days, repeated at twenty-one day intervals, after six treatment regimen
  tumor size regression (CAT scan): a complete regression of the disease was observed
[4]
  water solubility: water-soluble
[5]; D5W, 0.02 mg/ml
  Percentage of initial topotecan remaining in solution: 100.00%
[5]; D5W, 0.1 mg/ml
  Percentage of initial topotecan remaining in solution: 100.00%
[5]; NS, 0.02 mg/ml
  Percentage of initial topotecan remaining in solution: 100.00%
[5]; NS, 0.1 mg/ml
  Percentage of initial topotecan remaining in solution: 100.00%
[3]; one patient, prior radiation and ipomeanol, at least one course i.v. 1.5 mg/m^2 per day, five consecutive days
  response (measurable tumor size regression): a temporary response (measurable tumor size regression) was observed
[2]
  inhibition of topoisomerase I: specific inhibitor of DNA topoisomerase I

From patent publication US5756512A, “Treatment of non-small cell lung carcinoma” (SmithKline Beecham Corporation, priority 1996, dated 1998)
